Converted amounts (≈) assume the structure as drawn.

In the first assay the test system is human transformed T cell line, H9. Description: H9 proliferation Assay. Format: cell-based. To be noted: 3 days culture, 3H-thymidine pulse on day 3, harvest 16 hours later. Here is the method: The human transformed T cell line, H9 (ATCC Rockville, Md.), was cultured at 3000/well in RPMI 1640 medium supplemented with 5 % human AB serum, glutamine (2 mM), penicillin/streptomycin (50 U/ml, 50 micrograms/ml), sodium pyruvate (1 mM), HEPES (10 mM), and non-essential amino acids (1X) in a total of 200 microliter/well in a 96 well plate. The H9 cells were cultured with and without various dilutions of test compound for 3 days.
The cells were pulsed on day 3 with 1 microCurie/well of ^3 H-thymidine using a standard procedure known in the art. The cells were then harvested 16 hours later onto glass fiber filters using a TOMTEC cell harvester. Cellular proliferation was assessed by thymidine incorporation and measured by liquid scintillation counting using a Beta plate counter (Pharmacia, Inc., Piscataway, N.J.). The IC 50 represents the amount of compound necessary to inhibit 50% of the thymidine incorporation.
For `COc1cc(-c2ccc([N+](=O)[O-])c(OC)c2)ccc1Nc1ccccc1C(=O)O` [PRO4636], the IC50 (as a rule, the concentration that inhibits the measured activity by half) is 3.2 µg/mL (≈ 8.11 µM).

For another assay, the system named is human peripheral blood lymphocyte (PBL). The assay can be described thus: cells. Format: cell-based.
Conditions: not given
Consider `CC(=O)Nc1ccc(-c2ccc(Nc3ccccc3C(=O)O)cc2)cc1` [PRO5023], for which the IC50 is above 1 µg/mL. Compound `COc1cc(-c2ccc(Nc3ccccc3C(=O)O)c(OC)c2)ccc1NC(C)=O` [PRO4379] returned a half-maximal inhibitory concentration (IC50) of 0.133 µg/mL (≈ 0.327 µM). Turning to `COc1cccc(-c2ccc(Nc3ccccc3C(=O)O)c(OC)c2)c1` [PRO4403], the IC50 was found to be 0.012 µg/mL (≈ 0.0343 µM). The same measure, in the same setting: under `COc1cc(-c2ccc(Nc3ccccc3-c3nn[nH]n3)c(OC)c2)ccc1N` [PRO5105] stands above 1 µg/mL; under `COc1cc(-c2ccc(Nc3ccccc3C(=O)O)c(OC)c2)ccc1Br` [PRO4402], 0.03 µg/mL (≈ 0.07 µM); under `O=C(O)c1ccccc1Nc1ccc(-c2ccccc2)cc1` [PRO4917], 0.296 µg/mL (≈ 1.02 µM).

In the case of `CNc1ccc(-c2ccc(Nc3ccccc3C(=O)O)c(OC)c2)cc1OC` [PRO6370], the IC50 was 0.01 µg/mL (≈ 0.0264 µM). The same measure, in the same setting: then `COC(=O)c1ccccc1Nc1ccc(-c2ccc(N)c(OC)c2)cc1OC` [PRO5021], with 0.037 µg/mL (≈ 0.0978 µM); and `COc1cc(-c2ccc(Nc3ccccc3C(=O)O)c(OC)c2)ccc1NC(=O)OC(C)(C)C` [PRO4323], with 0.015 µg/mL (≈ 0.0323 µM); and `COc1cc(-c2ccc(N(C)C)c(OC)c2)ccc1Nc1ccccc1C(=O)O` [PRO6365], with 0.194 µg/mL (≈ 0.494 µM). The same measure, in the same setting: under `Nc1ccc(-c2ccc(Nc3ccccc3C(=O)O)cc2)cc1` [PRO4707] stands 0.086 µg/mL (≈ 0.283 µM); under `COc1cc(-c2ccc([N+](=O)[O-])c(OC)c2)ccc1Nc1ccccc1-c1nn[nH]n1` [PRO5106], above 1 µg/mL; under `COc1cc(-c2ccc(Nc3ccccc3C(=O)O)c(OC)c2)ccc1N` [PRO3249], 0.005 µg/mL (≈ 0.0137 µM).

For the compound `Nc1ccc(C(=O)c2ccc(Nc3ccccc3C(=O)O)cc2)cc1` [PRO4708], the IC50 was 0.345 µg/mL (≈ 1.04 µM).

The next assay has as its system PBLs. Description: Mixed Lymphocyte Reactions (MLR) Assay. Format: cell-based. Conditions: Homo sapiens, 3H-thymidine pulse on day 5, harvest 16 hours later. How it is done: Mixed Lymphocyte Reactions (MLR) Assay
Blood samples were drawn from two donors and the lymphocytes were separated out by Ficoll gradient by standard procedures known in the art. The isolated lymphocytes from done 1 were left untreated and the cells from donor 2 where suspended in Hanks Balanced Salt Solution at 10^7 /ml and treated with 50 micrograms/ml mitomycin C for 30 minutes at 37° C.
The PBLs were cultured in RPMI 1640 medium containing 5% human AB serum, glutamine (2 mM), penicillin/streptomycin (50 micrograms/ml / 50 micrograms/ml), sodium pyruvate (1 mM) and HEPES buffer (10 mM). For assay purposes, 10^5 PBLs from each donor were added to each well of a 96-well plate in a total volume of 200 microliters along with various dilutions of test compound.
The cultures were pulsed with 1 microCurie ^3 H-thymidine on day 5 and harvested 16 hours later onto a glass fiber filter. Thymidine incorporation was measured by liquid scintillation counting using a Beta plate counter. The IC50 represents the amount of compound necessary to inhibit 50 % of the thymidine incorporation.
The compound `Nc1cccc(C(=O)c2cccc(Nc3ccccc3C(=O)O)c2)c1` [PRO4919] yielded an IC50 of 5 µg/mL (≈ 15 µM).

The values above are taken from patent publication US5739169A, “Aromatic compounds for inhibiting immune response” (Procept, Incorporated, priority 1996, dated 1998).
